Reference: patent publication US11857565B2, “Hydrophobic Auristatin F compounds and conjugates thereof” (priority 2018, dated 2024)
Read-outs that look alike come from different tables or passages of the source. Non-standard residues stand in square brackets, D forms with d. Residues, ends and D or L forms follow the SMILES beside them. *: point of attachment. Dolaproine = CO[C@@H]([C@@H]1CCCN1)[C@@H](C)C(=O)O; Dil = CC[C@H](C)[C@H](NC)[C@@H](CC(=O)O)OC; X12 = CCCCCCCCCCN(C)[C@H](C(=O)*)C(C)C; X11 = CCCCCCCCCN(C)[C@H](C(=O)*)C(C)C; X14 = CCCCCCCCN(C)[C@H](C(=O)*)C(C)C; X20 = CCCCCCCN(C)[C@H](C(=O)*)C(C)C; NMe2Val = CC(C)[C@@H](C(=O)*)N(C)C; X13 = CCCCCN(C)[C@H](C(=O)*)C(C)C; X9 = CCCCCCN(C)[C@H](C(=O)*)C(C)C; X10 = CCCCN(C)[C@H](C(=O)*)C(C)C; X15 = CCCN(C)[C@H](C(=O)*)C(C)C; X19 = CCN(C)[C@H](C(=O)*)C(C)C; NMeV = CN[C@H](C(=O)O)C(C)C

Experiments:
Format in all cases: cell-based
[1] = system: MDR− HL60 acute myeloid leukemia cell line; test: In vitro cytotoxicity (CellTiter-Glo cell proliferation assay), free drugs on HL60; settings: read-out: In vitro IC50 HL60 (MDR−)
Method: (§1) The cytotoxicity of an auristatin Ligand Drug Conjugate or free auristatin drug was measured by a cell proliferation assay employing the protocol described in Promega Corp. Technical Bulletin TB288; Mendoza et al., 2002, Cancer Res. 62:5485-5488), the methods of which is specifically incorporated by reference herein. Briefly, an aliquot of 100 μl of cell culture containing about […] (e.g., HL-60, SK-MEL-5, etc.) in medium is deposited in each well of a 96-well, opaque-walled plate. Control wells were prepared containing medium and without cells. Free Drug or conjugate is added to the experimental wells and incubated for 96 h and are then equilibrated to room temperature for approximately 30 minutes whereupon a volume of CellTiter-Glo™ reagent equal to the volume of cell culture medium present in each well is added. The contents are mixed for 2 minutes on an orbital shaker to induce cell lysis and the plate is incubated at room temperature for 10 minutes to stabilize the luminescence signal for recordation.

[2] = system: MDR+ HL60/RV acute myeloid leukemia cell line; test: In vitro cytotoxicity (CellTiter-Glo cell proliferation assay), free drugs on HL60/RV; settings: read-out: In vitro IC50 HL60/RV (MDR+)
Method: as §1

A2058 Melanoma = test: In vitro cytotoxicity, free drugs on A2058; settings: free drug
Method: as §1

SK-MEL-28 Melanoma = test: In vitro cytotoxicity, free drugs on SK-MEL-28; settings: free drug
Method: as §1

[3] = In vitro cytotoxicity, free drugs on Colo-853; settings: free drug; read-out: In vitro IC50 Colo-853 Colon Cancer
Method: as §1

A375 Melanoma = test: In vitro cytotoxicity, free drugs on A375; settings: free drug
Method: as §1

SK-MEL-5 Melanoma = test: In vitro cytotoxicity, free drugs on SK-MEL-5; settings: free drug
Method: as §1

IGR-37 Melanoma = test: In vitro cytotoxicity, free drugs on IGR-37; settings: free drug
Method: as §1

Structure (SMILES)	IC50 ([1]; Homo sapiens, HL-60, 96 h) [µM]	IC50 ([2]; Homo sapiens, HL-60, 96 h) [µM]	further results
CC[C@H](C)[C@@H]([C@@H](CC(=O)N1CCC[C@H]1[C@H](OC)[C@@H](C)C(=O)N[C@@H](Cc1ccccc1)C(=O)O)OC)N(C)C(=O)[C@@H](NC(=O)[C@H](C(C)C)N(C)C)C(C)C [Compound 1, Auristatin F] (NMe2Val-V[Dil][Dolaproine]F-OH)			IC50 ([1]; free drug, 96 h incubation): 0.137 µM; IC50 ([2]; free drug, 96 h incubation): 0.388 µM
CC[C@H](C)[C@@H]([C@@H](CC(=O)N1CCC[C@H]1[C@H](OC)[C@@H](C)C(=O)N[C@@H](Cc1ccccc1)C(=O)O)OC)N(C)C(=O)[C@@H](NC(=O)[C@@H](NC)C(C)C)C(C)C [Compound 2, Monomethyl auristatin F, reference compound] (H-[NMeV]V[Dil][Dolaproine]F-OH)			IC50 (A2058 Melanoma): 0.0842 µM; IC50 (SK-MEL-28 Melanoma): 0.138 µM; IC50 [3]: 0.0902 µM; IC50 (A375 Melanoma): 0.0489 µM; IC50 (SK-MEL-5 Melanoma): 0.0356 µM; IC50 (IGR-37 Melanoma): 0.0725 µM
CC[C@H](C)[C@@H]([C@@H](CC(=O)N1CCC[C@H]1[C@H](OC)[C@@H](C)C(=O)N[C@@H](Cc1ccccc1)C(=O)O)OC)N(C)C(=O)[C@@H](NC(=O)[C@H](C(C)C)N(C)CC)C(C)C [Compound 4, Ethyl-AF] (X19-V[Dil][Dolaproine]F-OH)	0.0232	0.145	
CCCN(C)[C@H](C(=O)N[C@H](C(=O)N(C)[C@@H]([C@@H](C)CC)[C@@H](CC(=O)N1CCC[C@H]1[C@H](OC)[C@@H](C)C(=O)N[C@@H](Cc1ccccc1)C(=O)O)OC)C(C)C)C(C)C [Compound 5, Propyl-AF] (X15-V[Dil][Dolaproine]F-OH)	0.0245	0.0821	
CCCCN(C)[C@H](C(=O)N[C@H](C(=O)N(C)[C@@H]([C@@H](C)CC)[C@@H](CC(=O)N1CCC[C@H]1[C@H](OC)[C@@H](C)C(=O)N[C@@H](Cc1ccccc1)C(=O)O)OC)C(C)C)C(C)C [Compound 6, Butyl-AF] (X10-V[Dil][Dolaproine]F-OH)	0.0143	0.0479	
CCCCCN(C)[C@H](C(=O)N[C@H](C(=O)N(C)[C@@H]([C@@H](C)CC)[C@@H](CC(=O)N1CCC[C@H]1[C@H](OC)[C@@H](C)C(=O)N[C@@H](Cc1ccccc1)C(=O)O)OC)C(C)C)C(C)C [Compound 7, Pentyl-AF] (X13-V[Dil][Dolaproine]F-OH)	0.0066	0.0357	
CCCCCCN(C)[C@H](C(=O)N[C@H](C(=O)N(C)[C@@H]([C@@H](C)CC)[C@@H](CC(=O)N1CCC[C@H]1[C@H](OC)[C@@H](C)C(=O)N[C@@H](Cc1ccccc1)C(=O)O)OC)C(C)C)C(C)C [Compound 8, Hexyl-AF] (X9-V[Dil][Dolaproine]F-OH)	0.0069	0.0409	
CCCCCCCN(C)[C@H](C(=O)N[C@H](C(=O)N(C)[C@@H]([C@@H](C)CC)[C@@H](CC(=O)N1CCC[C@H]1[C@H](OC)[C@@H](C)C(=O)N[C@@H](Cc1ccccc1)C(=O)O)OC)C(C)C)C(C)C [Compound 9, Heptyl-AF] (X20-V[Dil][Dolaproine]F-OH)	0.0077	0.0885	
CCCCCCCCN(C)[C@H](C(=O)N[C@H](C(=O)N(C)[C@@H]([C@@H](C)CC)[C@@H](CC(=O)N1CCC[C@H]1[C@H](OC)[C@@H](C)C(=O)N[C@@H](Cc1ccccc1)C(=O)O)OC)C(C)C)C(C)C [Compound 10, Octyl-AF] (X14-V[Dil][Dolaproine]F-OH)	0.0039	0.0559	
CCCCCCCCCN(C)[C@H](C(=O)N[C@H](C(=O)N(C)[C@@H]([C@@H](C)CC)[C@@H](CC(=O)N1CCC[C@H]1[C@H](OC)[C@@H](C)C(=O)N[C@@H](Cc1ccccc1)C(=O)O)OC)C(C)C)C(C)C [Compound 11, Nonyl-AF] (X11-V[Dil][Dolaproine]F-OH)	0.0018	0.0354	
CCCCCCCCCCN(C)[C@H](C(=O)N[C@H](C(=O)N(C)[C@@H]([C@@H](C)CC)[C@@H](CC(=O)N1CCC[C@H]1[C@H](OC)[C@@H](C)C(=O)N[C@@H](Cc1ccccc1)C(=O)O)OC)C(C)C)C(C)C [Compound 12, Decyl-AF] (X12-V[Dil][Dolaproine]F-OH)	0.001	0.0592	
